Assay results reported in patent publication US20230331675A1, “AROMATIC ETHYLENE COMPOUND AND PREPARATION METHOD THEREFOR, AND INTERMEDIATE, PHARMACEUTICAL COMPOSITION, AND APPLICATION THEREOF” (GUANGZHOU MAXINOVEL PHARMACEUTICALS CO., LTD., priority 2020, published 2023).

Molecular target: PD-1/PD-L1 (Homo sapiens (Human), UniProt Q9NZQ7)
Experiment: Homogeneous time-resolved fluorescence (HTRF) binding assay
Settings: CisBio kit, read-out: IC50 of compounds binding to PD-1/PD-L1
Description: Effect embodiment 1: Homogenouse time-resolved fluorescence
Homogeneous time-resolved fluorescence (HTRF) binding assay was used to determine the binding ability of the compound of the present disclosure to PD-1/PD-L1.
The purchased kit (CisBio, #64CUS000C-1) contained reagents required for assays such as PD-1, PD-L1, anti-tag1-Eu, Anti-tag2-XL665, dilute buffer, and detection buffer.
1. The compound was formulated to 10 concentrations with a 3-fold gradient with 100% DMSO.
2. The DMSO solution of the compound was added to the dilute buffer, mixed thoroughly, then transferred to a 96-well plate.
3. PD-L1 was diluted with dilute buffer, then added to the above 96-well plate.
4. PD-1 was diluted with dilute buffer and added to the above 96-well plate, which was then incubated at room temperature for 30 minutes.
5. A portion of anti-tag1-Eu and a portion of anti-tag2-XL665 were added to the detection buffer, mixed thoroughly and transferred to the above 96-well plate.
6. The mixture in the above 96-well plate was incubated at room temperature for 1 to 24 hours.
7. HTRF values were read with Envision.

Chain of PD-1/PD-L1 (Q9NZQ7 19-238): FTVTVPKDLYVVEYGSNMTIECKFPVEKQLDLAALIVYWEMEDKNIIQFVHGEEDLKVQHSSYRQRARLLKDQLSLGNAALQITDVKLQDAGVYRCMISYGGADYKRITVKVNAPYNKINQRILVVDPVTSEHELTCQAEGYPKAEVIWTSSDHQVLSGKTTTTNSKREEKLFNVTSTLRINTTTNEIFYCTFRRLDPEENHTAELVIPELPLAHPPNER

| SMILES | IC50 [nM] |
| --- | --- |
| COc1cc(/C(Br)=C/c2cccc(-c3ccccc3)c2C)c(C(F)(F)F)cc1CNCCO [Compound 66, (Z)-2-((4-(1-Bromo-2-(2-methyl-[1,1′-biphenyl]-3-yl)vinyl)-2-methoxy-5-trifluoromethylbenzyl)amino)-1-ethanol] | 41.7 |
| COc1cc(/C=C/c2cccc(-c3ccccc3)c2C#N)c(C(F)(F)F)cc1CN1CCCC[C@H]1C(=O)O [Compound 7, (S,E)-1-(4-(2-(2-Cyano-[1,1′-biphenyl]-3-yl)vinyl)-2-methoxy-5-trifluoromethylbenzyl)piperidine-2-carboxylic acid] | 1.9 |
| [2H]C([2H])([2H])Oc1cc(/C=C/c2cccc(-c3ccccc3)c2C#N)c(CN2CCCC[C@H]2C(=O)O)cc1Cl [Compound 52, (S,E)-1-(5-Chloro-2-(2-(2-cyano-[1,1′-biphenyl]-3-yl)vinyl)-4-(methoxy-d3)benzyl)piperidine-2-carboxylic acid] | > 10000 |
| Cc1cc(CN2CCOC[C@H]2C(=O)O)c(OCCCCC#N)cc1/C=C/c1cccc(-c2ccccc2)c1C#N [Compound 17, (S,E)-4-(4-(2-(2-Cyano-[1,1′-biphenyl]-3-yl)vinyl)-2-(4-cyanobutoxy)-5-methylbenzyl)morpholine-3-carboxylic acid] | 4.4 |
| [2H]C([2H])([2H])Oc1cc(/C=C/c2cccc(-c3ccccc3)c2C)c(C(F)(F)F)cc1CN1CCCC[C@H]1C(=O)O [Compound 60, (S,E)-1-(2-(Methoxy-d3)-4-(2-(2-methyl-[1,1′-biphenyl]-3-yl)vinyl)-5-trifluoromethylbenzyl)piperidine-2-carboxylic acid] | 0.59 |
| Cc1cc(CN2CCCC[C@H]2C(=O)O)c(OCCCCC#N)cc1/C=C/c1cccc(-c2ccccc2)c1C#N [Compound 15, (S,E)-1-(4-(2-(2-Cyano-[1,1′-biphenyl]-3-yl)vinyl)-2-(4-cyanobutoxy)-5-methylbenzyl)piperidine-2-carboxylic acid] | 2.1 |
| Cc1cc(/C=C/c2cccc(-c3ccccc3)c2C)c(Cl)cc1CN1CCNC[C@H]1C(=O)O [Compound 23, (S,E)-1-(5-Chloro-2-methyl-4-(2-(2-methyl-[1,1′-biphenyl]-3-yl)vinyl)benzyl)piperazine-2-carboxylic acid] | 186 |
| Cc1cc(/C=C/c2cccc(-c3ccccc3)c2C#N)c(Cl)cc1CN1CCCC[C@H]1C(=O)O [Compound 8, (S,E)-1-(5-Chloro-4-(2-(2-cyano-[1,1′-biphenyl]-3-yl)vinyl)-2-methylbenzyl)piperidine-2-carboxylic acid] | 1.6 |
| Cc1ccc(OCCCCC#N)c(CN2CCOC[C@H]2C(=O)O)c1/C=C/c1cccc(-c2ccccc2)c1C#N [Compound 46, (S,E)-4-(2-(2-(2-Cyano-[1,1′-biphenyl]-3-yl)vinyl)-6-(4-cyanobutoxy)-3-methylbenzyl)morpholine-3-carboxylic acid] | > 10000 |
| COCCOc1cc(/C=C/c2cccc(-c3ccccc3)c2C#N)c(CN[C@@](C)(CO)C(=O)O)cc1Cl [Compound 35, (S,E)-2-((5-Chloro-2-(2-(2-cyano-[1,1′-biphenyl]-3-yl)vinyl)-4-(2-methoxyethoxy)benzyl)amino)-3-hydroxy-2-methylpropanoic acid] | 1150 |
| COc1cc(/C(F)=C/c2cccc(-c3ccccc3)c2C)c(C(F)(F)F)cc1CNCCO [Compound 65, (Z)-2-((4-(1-Fluoro-2-(2-methyl-[1,1′-biphenyl]-3-yl)vinyl)-2-methoxy-5-trifluoromethylbenzyl)amino)-1-ethanol] | 48 |
| Cc1cc(/C=C/c2cccc(-c3ccccc3)c2C#N)c(Cl)cc1CNCC(=O)O [Compound 19, (E)-(5-Chloro-4-(2-(2-cyano-[1,1′-biphenyl]-3-yl)vinyl)-2-methylbenzyl)glycine] | 6.2 |
| Cc1cc(CN2CCOC[C@H]2C(=O)O)c(C)cc1/C=C/c1cccc(-c2ccccc2)c1C#N [Compound 11, (S,E)-4-(4-(2-(2-Cyano-[1,1′-biphenyl]-3-yl)vinyl)-2,5-dimethylbenzyl)morpholine-3-carboxylic acid] | 10.1 |
| COCCOc1cc(/C=C/c2cccc(-c3ccccc3)c2C#N)c(CN2CCOC[C@H]2C(=O)O)cc1Cl [Compound 34, (S,E)-4-(5-Chloro-2-(2-(2-cyano-[1,1′-biphenyl]-3-yl)vinyl)-4-(2-methoxyethoxy)benzyl)morpholine-3-carboxylic acid] | > 10000 |
| Cc1ccc(OCCCCC#N)c(CN2CCCC[C@H]2C(=O)O)c1/C=C/c1cccc(-c2ccccc2)c1C#N [Compound 45, (S,E)-1-(2-(2-(2-Cyano-[1,1′-biphenyl]-3-yl)vinyl)-6-(4-cyanobutoxy)-3-methylbenzyl)piperidine-2-carboxylic acid] | > 10000 |
| CS(=O)(=O)CCCOc1cc(/C=C/c2cccc(-c3ccccc3)c2C#N)c(CN2CCCC[C@H]2C(=O)O)cc1Cl [Compound 36] | > 10000 |

Continued, values first:

| IC50 [nM] | SMILES |
| --- | --- |
| 87.1 | Cc1c(/C=C/c2ccc(CN3CCCC[C@H]3C(=O)O)cc2Cl)cccc1-c1ccccc1 [Compound 3, (S,E)-1-(3-Chloro-4-(2-(2-methyl-[1,1′-biphenyl]-3-yl)vinyl)benzyl)piperidine-2-carboxylic acid] |
| 1.6 | COc1cc(/C=C/c2cccc(-c3ccccc3)c2C)c(C(F)(F)F)cc1CN1CCCC[C@H]1C(=O)O [Compound 6, (S,E)-1-(2-Methoxy-4-(2-(2-methyl-[1,1′-biphenyl]-3-yl)vinyl)-5-trifluoromethylbenzyl)piperidine-2-carboxylic acid] |
| 7.09 | COc1cc(/C=C/c2cccc(-c3ccccc3)c2CF)c(C(F)(F)F)cc1CNCCO [Compound 74, (E)-2-((4-(2-(2-Fluoromethyl-[1,1′-biphenyl]-3-yl)vinyl)-2-methoxy-5-trifluoromethylbenzyl)amino)-1-ethanol] |
| 25.8 | Cc1cc(/C=C/c2cccc(-c3ccccc3)c2C#N)c(Cl)cc1CN1CCOC[C@H]1C(=O)O [Compound 9, (S,E)-4-(5-Chloro-4-(2-(2-cyano-[1,1′-biphenyl]-3-yl)vinyl)-2-methylbenzyl)morpholine-3-carboxylic acid] |
| 141 | COCc1cc(/C=C/c2cccc(-c3ccccc3)c2C#N)c(C(F)(F)F)cc1CN1CCOC[C@H]1C(=O)O [Compound 50, (S,E)-4-(4-(2-(2-Cyano-[1,1′-biphenyl]-3-yl)vinyl)-2-(methoxymethyl)-5-trifluoromethylbenzyl)morpholine-3-carboxylic acid] |
| 18.6 | COCc1cc(/C=C/c2cccc(-c3ccccc3)c2C#N)c(C(F)(F)F)cc1CN1CCCC[C@H]1C(=O)O [Compound 49, (S,E)-1-(4-(2-(2-Cyano-[1,1′-biphenyl]-3-yl)vinyl)-2-(methoxymethyl)-5-trifluoromethylbenzyl)piperidine-2-carboxylic acid] |
| 6.8 | COCCOc1cc(/C=C/c2cccc(-c3ccccc3)c2C#N)c(C)cc1CN1CCCC[C@H]1C(=O)O [Compound 24, (S,E)-1-(4-(2-(2-Cyano-[1,1′-biphenyl]-3-yl)vinyl)-2-(2-methoxyethoxy)-5-methylbenzyl)piperidine-2-carboxylic acid] |
| 3.58 | Cc1c(/C=C/c2cc(OCCCF)c(CN3CCCC[C@H]3C(=O)O)cc2C(F)(F)F)cccc1-c1ccccc1 [Compound 86, (S,E)-1-(2-(3-Fluoropropoxy)-4-(2-(2-methyl-[1,1′-biphenyl]-3-yl)vinyl)-5-(trifluoromethyl)benzyl)piperidine-2-carboxylic acid] |
| 12.8 | COc1cc(/C(Br)=C/c2cccc(-c3ccccc3)c2C)c(C(F)(F)F)cc1CN1CCCC[C@H]1C(=O)O [Compound 67, (S,Z)-1-(4-(1-Bromo-2-(2-methyl-[1,1′-biphenyl]-3-yl)vinyl)-2-methoxy-5-trifluoromethylbenzyl)piperidine-2-carboxylic acid] |
| 135 | N#Cc1c(/C=C/c2cc(CO)c(CN3CCNC[C@H]3C(=O)O)cc2C(F)(F)F)cccc1-c1ccccc1 [Compound 28, (S,E)-1-(4-(2-(2-Cyano-[1,1′-biphenyl]-3-yl)vinyl)-2-hydroxymethyl-5-trifluoromethylbenzyl)piperazine-2-carboxylic acid] |
| 9.31 | COc1cc(/C=C/c2cccc(-c3ccccc3)c2C)c(C)cc1CN1CCCC[C@H]1C(=O)O [Compound 70, (S,E)-1-(2-Methoxy-5-methyl-4-(2-(2-methyl-[1,1′-biphenyl]-3-yl)vinyl)benzyl)piperidine-2-carboxylic acid] |
| 2.8 | Cc1c(/C=C/c2cc(OCCF)c(CN3CCCC[C@H]3C(=O)O)cc2C(F)(F)F)cccc1-c1ccccc1 [Compound 87, (S,E)-1-(2-(2-Fluoroethoxy)-4-(2-(2-methyl-[1,1′-biphenyl]-3-yl)vinyl)-5-(trifluoromethyl)benzyl)piperidine-2-carboxylic acid] |
| 29.5 | COc1cc(/C(F)=C/c2cccc(-c3ccccc3)c2C)c(C(F)(F)F)cc1CN1CCCC[C@H]1C(=O)O [Compound 64, (S,Z)-1-(4-(1-Fluoro-2-(2-methyl-[1,1′-biphenyl]-3-yl)vinyl)2-methoxy-5-trifluoromethylbenzyl)piperidine-2-carboxylic acid] |
| 3.97 | Cc1c(/C=C/c2cc(OCc3cc(I)ccn3)c(CN3CCCC[C@H]3C(=O)O)cc2C(F)(F)F)cccc1-c1ccccc1 [Compound 80, (S,E)-1-(2-((4-Iodopyridin-2-yl)methoxy)-4-(2-(2-methyl-[1,1′-biphenyl]-3-yl)vinyl)-5-(trifluoromethyl)benzyl)piperidine-2-carboxylic acid] |
